# Measurements published in patent US20250332132A1, “SELENIUM-CONTAINING SUBSTANCE FOR TREATMENT OF CANCER” (SHANGHAI INSTITUTE OF NUTRITION AND HEALTH, CHINESE ACADEMY …, priority 2022, published 2025).
# How the values were obtained:
# [1] = test system: LLC cell subcutaneous xenograft tumors; test: Subcutaneous LLC xenograft tumor model in mice (tumor growth, volume, weight); format: in vivo, mouse (C57BL/6J)
# Procedure: FIG. 1 panel A: Experimental pattern diagram. Mice were first subcutaneously injected with LLC cells (2*10^5 cells per mouse) to establish xenograft tumors. After 14 days of tumor formation, mice received SeMet treatment for two weeks, with intraperitoneal injection of SeMet at a dose of 2 mg/kg, 5 times per week; FIG. 1 panel B: Tumor growth statistical curve in mice; FIG. 1 panel C: Representative photographic results of mouse tumors.
# FIG. 5 illustrates the therapeutic effects of SeMet and PD-1 antibody on LLC cell subcutaneous xenograft tumors in mice. FIG. 5 panel A: Experimental pattern diagram. Mice were first subcutaneously injected with LLC cells (2*10^5 cells per mouse) to establish xenograft tumors. After 14 days of tumor formation, mice were treated with SeMet and PD-1 antibody alone or in combination by intraperitoneal injection for two weeks. The dosage of SeMet was 2 mg/kg, 5 times per week; the dosage of PD-1 antibody was 200 μg per mouse, 2 times per week; FIG. 5 panel B: Tumor growth statistical curve in mice; FIG. 5 panel C: Ratio of tumor to body weight in mice; FIG. 5 panel D: Representative photographic results of mouse tumors.
# All animal experiments were approved by the Animal Ethics Committee of the Institute of Nutrition Sciences, Shanghai Institutes for Biological Sciences, Chinese Academy of Sciences, and were conducted in accordance with the protocols approved by the Animal Care and Use Committee of Shanghai Institutes for Biological Sciences. Six-week-old C57BL/6J mice were purchased from Shanghai Slake Experimental Animal Co., Ltd. and were housed in an SPF-grade animal facility. […] The tumor size was measured every two days, and the tumor volume (mm^3) was calculated using the following formula: ½×a×b^2, wherein a was the long diameter and b was the short diameter of the tumor. After the mice were euthanized, the tumors were excised, weighed, and the average weight of tumors in each group was calculated. The excised tumors were fixed with paraformaldehyde for subsequent immunohistochemical or immunofluorescence analysis.
# C57BL/6J mice were subcutaneously injected with LLC cells (2*10^5 cells per mouse) to establish xenograft tumors. After 14 days of tumor formation, mice received SeMet treatment for two weeks (FIG. 1 panel A).
# Subsequently, we investigated the therapeutic effects of SeMet and PD-1 antibody used alone or in combination on LLC cell subcutaneous xenograft tumors in mice. Mice were first subcutaneously injected with LLC cells (2*10^5 cells per mouse) to establish xenograft tumors. After 14 days of tumor formation, mice were treated with SeMet and PD-1 antibody alone or in combination by intraperitoneal injection for two weeks. The dosage and frequency of SeMet were the same as previously described, while the dosage of PD-1 antibody was 200 μg per mouse, 2 times per week (FIG. 5 panel A).
# An L-selenomethionine was used to construct an N-acetyl-selenomethionine (N-Ac-SeMet) to improve its stability. To verify the therapeutic effect of the N-acetyl-selenomethionine on lung cancer, C57BL/6J mice were subcutaneously injected with LLC cells (2*10^5 cells per mouse) to establish xenograft tumors and divided into four groups: control group, selenomethionine (SeMet) treated group, N-acetyl-selenomethionine (N-Ac-SeMet) treated group, and anti-PD1 treated group. After 14 days of tumor formation, the mice in each group were treated for two weeks.
# [2] = test system: CD45+ immune cells, CD25+Foxp3+ Treg cells, IL-17a+ TH17 cells; test: Flow cytometry of immune cells in LLC xenograft tumors; format: in vivo, mouse (C57BL/6J)
# Procedure: Preparation of single-cell suspension from mouse tumor cells: 200 mg of mouse tumor tissue was obtained, cut into pieces and added to 2.43 ml of tumor digestion solution, followed by digestion in a 37° C. shaking water bath for 30 minutes. Flow cytometry staining included surface antigen staining and intracellular factor (cytokines and transcription factors) staining. For the cytokine detection, broad-spectrum activation inhibitors (PMA, ionomycin, or BFA, added at a ratio of 1:1000) were first prepared with the RPMI-1640 medium. 100 μl of each reagent was added to resuspend the cells, and the cells were then transferred to a 96-well plate and treated in a 37° C. cell incubator for 4-6 h. Subsequently, 200 μl of FACS buffer was added, and the cells were pipetted to mix evenly before transferred to a 1.5 ml eppendorf tube. The tube was centrifuged at 350 g for 5 minutes, and the supernatant was carefully aspirated. Cells were resuspended in 100 μl of PBS. For the surface antigen staining, the above steps were omitted. The cell suspension was placed on ice, and live/dead dye (at a ratio of 1:1000) was added. Staining was performed on ice in darkness for 30 minutes. Cells were washed with 1 ml of PBS, centrifuged at 350 g for 5 minutes, and the supernatant was carefully removed. The cell precipitate was resuspended in the FACS buffer, and the blocking antibody CD16/CD32 was added at a ratio of 1:200. The mixture was placed on ice in darkness for 30 minutes. Subsequently, surface antibodies were added at a ratio of 1:200: CD45, CD3, CD4, and CD25 antibodies were sequentially added for Treg cell surface staining; CD45, CD3, and CD4 antibodies were sequentially added for Th17 cell staining. Incubation was performed on ice in darkness for 30 minutes. Cells were washed with 1 ml of the FACS buffer, then centrifuged at 350 g for 5 minutes, and the supernatant was carefully removed. For intracellular factor staining, 250 μl of the fixation/permeabilization solution was added, and the cells were incubated on ice in darkness for 2 h. Then, 1 ml of the fixation/permeabilization wash buffer was added, the cells were centrifuged at 500 g for 5 minutes, and the supernatant was carefully removed. Cells were resuspended in the fixation/permeabilization wash buffer, and intracellular antibodies Foxp3 and IL-17A were added at a ratio of 1:200. The cells were incubated on ice in darkness for 30 minutes. After washing with 1 ml of the FACS buffer and centrifugation at 500 g for 5 minutes, the supernatant was carefully removed. Cells were resuspended in 200 μl of the FACS buffer and prepared for flow cytometry analysis.
# selenoproteins = test: qPCR / Western blot of selenoprotein expression in LLC xenograft tumors; format: in vivo, mouse (C57BL/6J)
# PD-L1 = test: qPCR, WB and immunofluorescence of PD-L1 expression in LLC xenograft tumors; format: in vivo, mouse (C57BL/6J); conditions: immunofluorescence, FIG. 4
# [3] = Selenium content in subcutaneous xenograft tumors; format: in vivo, mouse; conditions: mice, after SeMet treatment
# CD4 and Foxp3 = test: qPCR of CD4 and Foxp3 expression in LLC xenograft tumors; format: in vivo, mouse (C57BL/6J); conditions: vs control group, FIG. 7A
# Procedure: After the cells were cultured or treated, the medium was discarded, and the cells were washed once with ice-cold PBS. Then, 1 mL of Trizol reagent was added, and the cells were completely blown down. If it was for the tissue, 10-20 mg of tissue was homogenized into a homogenate using a grinder, with the addition of steel beads and 1 mL of Trizol. 200 μL of chloroform was added into the cell or tissue homogenate in 1 mL of Trizol, mixed vigorously, and placed on ice for 5 minutes. The mixture was centrifuged at 12,000 rpm for 10 minutes at 4° C. Then, 400 μL of the supernatant was carefully aspirated and added to an equal volume of isopropanol, vigorously mixed, and placed on ice for 15 minutes and centrifuged again at 12,000 rpm for 10 minutes at 4° C. Afterwards, a white RNA precipitate was visible at the bottom. The supernatant was carefully discarded, and 1 ml of 75% ethanol (diluted with DEPC-treated water) was added. […] A certain volume of DEPC-treated water was added to dissolve the RNA, and the concentration was measured. […] The genomic DNA removal reaction system was as follows: According to the gene primers to be detected, the above-mentioned Mix without the cDNA template was prepared, mixed thoroughly, and kept on ice until use. […] The detection program was as follows: After detection, the relative gene expression levels were calculated using the 2^−┐┐T method.
# B16 melanoma cells = test: Subcutaneous B16 melanoma xenograft tumor model in mice; format: in vivo, mouse (C57BL/6J); conditions: C57BL/6J mice, B16 2*10^5 cells s.c.; treated two weeks from day 14; FIG. 10
# Procedure: To verify the therapeutic effect of selenomethionine (SeMet) on melanoma, C57BL/6J mice were subcutaneously injected with B16 melanoma cells (2*10^5 cells per mouse) to establish xenograft tumors. After 14 days of tumor formation, the mice were treated with SeMet for two weeks (FIG. 10 panel A).
# [4] = test system: Treg cells, IL-17a-secreting TH17 cells; test: Flow cytometry of Treg and TH17 cells in B16 xenograft tumors; format: in vivo, mouse (C57BL/6J)
# Procedure: (§1) Preparation of single-cell suspension from mouse tumor cells: 200 mg of mouse tumor tissue was obtained, cut into pieces and added to 2.43 ml of tumor digestion solution, followed by digestion in a 37° C. shaking water bath for 30 minutes. Flow cytometry staining included surface antigen staining and intracellular factor (cytokines and transcription factors) staining. For the cytokine detection, broad-spectrum activation inhibitors (PMA, ionomycin, or BFA, added at a ratio of 1:1000) were first prepared with the RPMI-1640 medium. 100 μl of each reagent was added to resuspend the cells, and the cells were then transferred to a 96-well plate and treated in a 37° C. cell incubator for 4-6 h. Subsequently, 200 μl of FACS buffer was added, and the cells were pipetted to mix evenly before transferred to a 1.5 ml eppendorf tube. The tube was centrifuged at 350 g for 5 minutes, and the supernatant was carefully aspirated. Cells were resuspended in 100 μl of PBS. For the surface antigen staining, the above steps were omitted. The cell suspension was placed on ice, and live/dead dye (at a ratio of 1:1000) was added. Staining was performed on ice in darkness for 30 minutes. Cells were washed with 1 ml of PBS, centrifuged at 350 g for 5 minutes, and the supernatant was carefully removed. […]
# colon cancer CT26 cells = test: Orthotopic CT26 colon cancer model in mice; format: in vivo, mouse (BALB/C); conditions: BALB/C mice, CT26 tumor pieces implanted orthotopically at cecal end; treatment from second day; effects similar to anti-PD1; FIG. 12 A-B
# Description: To verify the therapeutic effect of selenomethionine (SeMet) on colon cancer, BALB/C mice were subcutaneously inoculated with colon cancer CT26 cells. After subcutaneous xenograft tumors grew to a certain size, the tumors were cut into 1 mm*1 mm*1 mm pieces that were then orthotopically implanted at the cecal end of the mice. SeMet intervention was initiated on the second day after orthotopic tumor formation.
# [5] = test system: Treg cells, IL-17a-secreting TH17 cells; test: Flow cytometry of Treg and TH17 cells in CT26 colon tumors; format: in vivo, mouse (BALB/C)
# Procedure: as §1
# [6] = NSCLC subcutaneous xenograft tumor model, vs control group, summary statement
# [7] = NSCLC subcutaneous xenograft tumor model, summary statement
smiles,measurement,setting,value
"C[Se]CC[C@H](NC(C)=O)C(=O)O [N-Ac-SeMet, N-acetyl-selenomethionine]",average tumor weight,"[1]; LLC s.c. tumors, end of treatment, vs control, p<0.05, FIG. 8C",significantly lower than those in the control group
same,tumor weight-to-body weight ratio,"[1]; LLC s.c. tumors, end of treatment, vs control, p<0.05, FIG. 8D",significantly lower than those in the control group
same,tumor volume,"[1]; LLC s.c. tumors, treated two weeks from day 14, Day 15, vs control, p<0.05, FIG. 8 A-B",significantly smaller than that in the control group
same,proportion of Treg (CD25+Foxp3+) cells in tumors,"[2]; LLC tumors, flow cytometry, FIG. 9 A-B",significantly reduced
same,proportion of Th17 (IL-17a+) cells in tumors,"[2]; LLC tumors, flow cytometry, FIG. 9 C-D",significantly increased
"C[Se]CC[C@H](N)C(=O)O [SeMet, L-selenomethionine]",growth of subcutaneous LLC tumors (tumor growth curves),"[1]; C57BL/6J mice, LLC 2*10^5 cells s.c., after 14 days SeMet 2 mg/kg i.p. 5 times per week for two weeks, FIG. 1",effectively inhibit the growth of subcutaneous LLC tumors
same,tumor growth,"[1]; LLC s.c. tumors, i.p. two weeks from day 14, SeMet 2 mg/kg 5 times per week, PD-1 antibody 200 μg per mouse 2 times per week, alone or combined, vs control, FIG. 5B",significantly reduced
same,tumor mass,[1]; [6],significantly reduced
same,tumor volume,[1]; [6],significantly reduced
same,tumor growth,[1]; [7],significantly inhibit tumor growth
same,tumor volume and mass compared with the PD-1 group,[1]; [7],no significant difference
same,ratio of tumor to body weight,"[1]; same study as FIG. 5B, FIG. 5C",validated this result
same,visual inspection of excised subcutaneous mouse tumors,"[1]; same study, FIG. 5D",significantly reduced
same,expression of SOD1 and GPX1 at the protein level,"selenoproteins; LLC xenograft tumors, vs control group, WB, FIG. 3 M-N",significant increase
same,"expression of selenoproteins SOD1, SOD2, GPX1, GPX2, GPX4, Sephs2, Sepx1, SelS, SelP, Txnrd1, Txnrd2, Txnrd3 at the mRNA level","selenoproteins; LLC xenograft tumors, vs control group, qPCR, FIG. 3 A-L",significant increase
same,"expression of selenoproteins GPX1, GPX2, SOD1, SOD2, Sephs2, Sepx1, SelS, Txnrd1, Txnrd2, SelF, Selk, SelW, MT2 at the mRNA level","selenoproteins; LLC xenograft tumors, vs control group, qPCR, FIG. 6",increased
same,"levels of major selenoproteins, including GPX1, GPX4","selenoproteins; NSCLC tissues after treatment, summary statement",significantly increased
same,expression of PD-L1,PD-L1,increased
same,selenium content in subcutaneous xenograft tumors,[3],significantly increased
same,expression levels of CD4 and Foxp3 (mRNA),CD4 and Foxp3,reduced
same,number of CD45+ immune cells,"[2]; LLC tumors digested into single cells, flow cytometry, FIG. 7 B-C",significantly increased
same,proportion of CD25+Foxp3+ Treg cells,"[2]; LLC tumors, flow cytometry, FIG. 7 D-E",significantly reduced
same,proportion of IL-17a-secreting TH17 cells,"[2]; LLC tumors, flow cytometry, FIG. 7 F-G",significantly increased
same,number of Treg cells infiltrating the tumor,"[2]; NSCLC tissues, flow sorting, summary statement",significantly reduced
same,growth of subcutaneous B16 tumors,B16 melanoma cells,"effectively inhibited the growth of subcutaneous B16 tumors, with effects similar to anti-PD1 treatment"
same,proportion of Treg cells,"[4]; FIG. 11 A, C",significantly reduced
same,proportion of IL-17a-secreting TH17 cells,"[4]; FIG. 11 B, D",significantly increased
same,colon cancer growth,colon cancer CT26 cells,effectively inhibited
same,proportion of Treg cells,"[5]; FIG. 12 C, E",significantly reduced
same,proportion of IL-17a-secreting TH17 cells,"[5]; FIG. 12 D, F",increased
